The results in this text go back to patent US20240325321A1, “COMPOSITIONS AND METHODS FOR INHIBITING PLpro PROTEASE ACTIVITY AND FOR PREVENTING AND TREATING SARS-CoV-2 INFECTION” (Arizona Board of Regents on Behalf of the University of …, priority 2022, published 2024).

Data set [1] has as its system SARS-CoV-2. The experiment in a line: SARS-CoV-2 antiviral assay in Caco2-hACE2 cells. The conditions noted are these: Severe acute respiratory syndrome coronavirus 2. Format: cell-based.
Data set [2] deals with SARS-CoV-2. Kind of data set: SARS-CoV-2 antiviral assay in Huh7-ACE2 cells. The conditions noted are these: Severe acute respiratory syndrome coronavirus 2. Format: cell-based.
Data set [3] has as its system SARS-CoV-2. The experiment in a line: SARS-CoV-2 antiviral assay in Vero E6 cells. Format: cell-based. As to conditions: Severe acute respiratory syndrome coronavirus 2, Vero C1008.
Data set [4] deals with SARS-CoV-2 PL^pro (Severe acute respiratory syndrome coronavirus 2, UniProt P0DTD1). The experiment in a line: biochemical. Format: biochemical.
Data set [5] in a line: Cytotoxicity in Vero E6 cells. As to conditions: African green monkey.
The target in data set [6] is T1, M^pro (Severe acute respiratory syndrome coronavirus 2, UniProt P0DTD1).
T1 construct: the main protease (M^pro)
Kind of data set: biochemical.

The nature of data set [7]: Cytotoxicity in Calu-3 cells. The conditions noted are these: human.
Data set [8] can be described thus: in vitro. The conditions noted are these: African green monkey.
The mark [9] stands for this setting: FRET assay, read-out: SARS-CoV-2 PL^pro IC50.

Read-outs that look alike come from different tables or passages of the source.

As usually defined, the EC50 is the concentration needed to bring the measured effect to its halfway point. Take `Cc1ccc(N)cc1C(=O)N[C@H](C)c1cccc2ccccc12` [GRL0617, reference compound]: the EC50 came out at 25.1 µM in data set [1], 20.2 µM in data set [2] and 74.4 µM in data set [3].

What is called IC50 is the point on the concentration scale where inhibition reaches its midpoint. In the case of `C[C@H](c1ccc(Cl)cc1)N(C)Cc1cc(O)ccc1Cl` [Jun9-13-4], the IC50 in data set [4] is greater than 20 µM.

Molecule `CCN(Cc1cc(O)ccc1Cl)c1cccc(C)c1C` [Jun9-13-5] yielded an IC50 in data set [4] greater than 20 µM.

For the molecule `CC(C1CCCCC1)N(C)Cc1cc(O)ccc1Cl` (stereo not shown) [Jun9-13-6], the IC50 in data set [4] was greater than 20 µM.

Consider `Cc1ccc(C(C)N(C)Cc2cc(O)ccc2Cl)cc1` (stereo not shown) [Jun9-13-8], for which the IC50 in data set [4] (setting [9]) stood at 71.8 µM.

With `COc1ccc(Cl)c(CN(C)[C@H](C)c2ccccc2C)c1` [Jun9-25-4], the IC50 in data set [4] (setting [9]) amounted to 49.3 µM.

The molecule `Cc1ccccc1[C@@H](C)N(C)Cc1cc(O)ccc1Cl` [Jun9-25-5] returned a CC50 in data set [5] of 38.8 µM. For the same molecule, the EC50 in data set [2] was determined as 3.1 µM.

In data set [4], `Cc1ccccc1CN(C)Cc1cc(O)ccc1Cl` [Jun9-26-2] gave a concentration for half-maximal inhibition (IC50) greater than 20 µM.

On to `COc1ccc(Cl)c(CN(C)[C@H](C)c2cccc3ccccc23)c1` [Jun9-26-5], for which, in data set [4], the IC50 was greater than 20 µM.

Turning to `C[C@H](c1cccc2ccccc12)N(C)Cc1cc(O)ccc1Cl` [Jun9-28-6], the IC50 in data set [6] was greater than 20 µM; in data set [4] (setting [9]), 2.66 µM. In addition, a half-maximal response in data set [2] (EC50) required 5.17 µM.

In data set [4], `CC1CCCCC1N(C)Cc1cc(O)ccc1Cl` (stereo not shown) [Jun9-29-1] yielded an IC50 greater than 20 µM.

In data set [4], `CC(C)c1ccccc1N(C)Cc1cc(O)ccc1Cl` [Jun9-29-3] gave an IC50 greater than 20 µM.

`CN(Cc1cc(O)ccc1Cl)Cc1c(Cl)cccc1Cl` [Jun9-29-4]: in data set [4], the IC50 is greater than 20 µM.

As to `CC(C1CC(F)CCC1F)N(C)Cc1cc(O)ccc1Cl` (stereo not shown) [Jun9-29-5], the IC50 in data set [4] (setting [9]) is greater than 20 µM.

Take `CC(c1cccc(O)c1)N(C)Cc1cc(O)ccc1Cl` (stereo not shown) [Jun9-29-6]: in data set [4] (setting [9]), the IC50 turned out to be 26.9 µM.

With `CC(c1ccccc1F)N(C)Cc1cc(O)ccc1Cl` (stereo not shown) [Jun9-29-7], in data set [4] (setting [9]), the IC50 was 42.9 µM.

Consider `C[C@H](c1cccc2ccccc12)N(C)Cc1ccc(O)cc1` [Jun9-44-3], for which the results for the half-maximal effective concentration (EC50) in data set [1] and in data set [3] were 8.32 µM and 11.2 µM, respectively. Also, in data set [7], the CC50 amounted to 27.7 µM. Besides, in data set [4], the “SARS-CoV-2 PL^pro inhibition, in words” value was “highly potent”.

Consider `Oc1ccc(Cl)c(CN2CCc3ccccc3C2)c1` [Jun9-44-5], for which the IC50 in data set [4] was greater than 20 µM.

For `C[C@@H](NC(=O)c1cc(O)ccc1Cl)c1cccc2ccccc12` [Jun9-47-2], the results for the IC50 in data set [6] and in data set [4] (setting [9]) were greater than 20 µM and 6.72 µM, respectively.

Regarding `Cc1ccc(O)cc1C(=O)N[C@H](C)c1cccc2ccccc12` [Jun9-47-3], the results for the IC50 in data set [6] and in data set [4] (setting [9]) were greater than 20 µM and 2.44 µM, respectively.

Take `C[C@H](c1cccc2ccccc12)N(C)Cc1cc(N)ccc1Cl` [Jun9-53-1]: the figures for the IC50 in data set [6] and in data set [4] (setting [9]) were greater than 20 µM and 2.71 µM, respectively.

`Cc1ccc(N)cc1CN(C)[C@H](C)c1cccc2ccccc12` [Jun9-53-2] registered a CC50 in data set [5] of 25.7 µM. Further, in data set [6], the IC50 was greater than 20 µM. Besides, the EC50 was 8.89 µM in data set [1] and 25.2 µM in data set [3]. The “SARS-CoV-2 PL^pro inhibition, in words” value in data set [4] was “highly potent”.

For the molecule `C[C@H](c1cccc2ccccc12)N(C)Cc1ccnc(O)c1` [Jun9-84-6], the IC50 in data set [4] is greater than 20 µM.

For the molecule `C[C@H](c1cccc2ccccc12)N(C)Cc1cnc(N)cc1N` [Jun9-84-7], in data set [4] (setting [9]), the IC50 amounted to 5.62 µM.

For `C[C@H](c1cccc2ccccc12)N(C)Cc1ccc(OCC(N)=O)nc1` [Jun9-85-4], the IC50 in data set [4] (setting [9]) was 2.84 µM.

Regarding `C[C@H](c1cccc2ccccc12)N(C)Cc1ccc2c(c1)COC2=O` [Jun9-85-7], the IC50 in data set [4] (setting [9]) is 6.41 µM.

For the molecule `C[C@H](c1cccc2ccccc12)N(C)Cc1ccc2cccc(O)c2c1` [Jun9-85-8], the half-maximal inhibitory concentration (IC50) in data set [4] (setting [9]) is greater than 20 µM.

Consider `C[C@H](c1cccc2ccccc12)N(C)Cc1ccc2c(c1)NC(=O)CO2` [Jun9-86-3], for which the IC50 in data set [4] (setting [9]) is 7.01 µM.

As to `Cc1cc(O)cc(C)c1CN(C)[C@H](C)c1cccc2ccccc12` [Jun9-86-6], the IC50 in data set [4] (setting [9]) was found to be 0.37 µM.

Take `C[C@H](c1cccc2ccccc12)N(C)Cc1n[nH]c2cccc(O)c12` [Jun9-86-7]: the concentration for half-maximal inhibition (IC50) in data set [4] was greater than 20 µM.

As to `Cc1cc(O)ccc1CN(C)[C@H](C)c1cccc2ccccc12` [Jun9-87-2], the CC50 in data set [8] was found to be 61 µM. Further, the “SARS-CoV-2 PL^pro inhibition, in words” value in data set [4] is “highly potent”.

Turning to `C[C@H](c1cccc2ccccc12)N(C)Cc1ccc(O)cc1Cl` [Jun9-87-3], in data set [8], the CC50 was determined as 26 µM. Besides, the “SARS-CoV-2 PL^pro inhibition, in words” value in data set [4] is reported as “highly potent”.

Take `Cc1ccc(S(N)(=O)=O)cc1C(=O)N(C)C(C)c1ccc(Cl)c2ccccc12` (stereo not shown) [Jun 10-69-2]: in data set [4], the “SARS-CoV-2 PL^pro inhibition, in words” value is listed as “highly potent”.

On to `C[C@H](c1cccc2ccccc12)N(C)C(=O)c1nccnc1N` [ZX-129], for which the half-maximal inhibitory concentration (IC50) in data set [6] and in data set [4] (setting [9]) was greater than 20 µM each time.

Consider `C[C@H](c1cccc2ccccc12)N(C)Cc1cccnc1` [ZX-136-2], for which, in data set [4] (setting [9]), the IC50 came to 9.29 µM.

Turning to `C[C@H](c1cccc2ccccc12)N(C)Cc1cnn(C)c1` [ZX-136-3], the IC50 in data set [4] (setting [9]) came out at 10.1 µM.

Turning to `C[C@H](c1cccc2ccccc12)N(C)Cc1ccc(-n2cccc2)cc1` [ZX-136-4], in data set [4], the IC50 is greater than 20 µM.

Regarding `C[C@H](c1cccc2ccccc12)N(C)Cc1cncn1C` [ZX-136-5], the IC50 in data set [4] (setting [9]) was determined as 8.32 µM.

For the molecule `C[C@H](c1cccc2ccccc12)N(C)Cc1cnccn1` [ZX-136-9], the IC50 in data set [4] was greater than 20 µM.

Consider `C[C@H](c1cccc2ccccc12)N(C)Cc1cnc2c(O)cccn12` [ZX-136-10], for which the IC50 in data set [4] (setting [9]) came to 14.3 µM.
